In patent US8664216B2, “Spiro-5,6-dihydro-4H-2,3,5,10b-tetraaza-benzo[e]azulenes” (Hoffmann-La Roche Inc., priority 2008, dated 2014):
Counter-ions that a name gives are not always drawn.

Target: T1, human V1a receptor (Homo sapiens, UniProt P37288)
T1 construct: expressed in transfected cells; host or cells: HEK293 cells, transiently transfected; membranes prepared
Test: human V1a receptor binding studies (3H-Vasopressin SPA, membranes of transfected HEK293 cells)
Details: not given
Protocol: The human V1a receptor was cloned by RT-PCR from total human liver RNA. The coding sequence was subcloned in an expression vector after sequencing to confirm the identity of the amplified sequence. […] Cell membranes were prepared from HEK293 cells transiently transfected with the expression vector and grown in 20 liter fermenters with the following protocol.
50 g of cells are resuspended in 30 ml freshly prepared ice cold Lysis buffer (50 mM HEPES, 1 mM EDTA, 10 mM MgCl2 adjusted to pH=7.4+complete cocktail of protease inhibitor (Roche Diagnostics)). Homogenized with Polytron for 1 min and sonicated on ice for 2×2 minutes at 80% intensity (Vibracell sonicator). The preparation is centrifuged 20 min at 500 g at 4° C., the pellet is discarded and the supernatant centrifuged 1 hour at 43,000 g at 4° C. (19,000 rpm). The pellet is resuspended in 12.5 ml Lysis buffer+12.5 ml Sucrose 20% and homogenized using a Polytron for 1-2 min. The protein concentration is determined by the Bradford method and aliquots are stored at −80° C. until use. For binding studies 60 mg Yttrium silicate SPA beads (Amersham) are mixed with an aliquot of membrane in binding buffer (50 mM Tris, 120 mM NaCl, 5 mM KCl, 2 mM CaCl2, 10 mM MgCl2) for 15 minutes with mixing. 50 μl of bead/membrane mixture is then added to each well of a 96 well plate, followed by 50 μl of 4 nM 3H-Vasopressin (American Radiolabeled Chemicals). For total binding measurement 100 μl of binding buffer are added to the respective wells, for non-specific binding 100 μl of […] cold vasopressin and for compound testing 100 μl of a serial dilution of each compound in 2% DMSO. The plate is incubated 1 h at room temperature, centrifuged 1 min at 1000 g and counted on a Packard Top-Count. Non-specific binding counts are subtracted from each well and data is normalized to the maximum specific binding set at 100%. To calculate an IC 50 the curve is fitted using a non-linear regression model (XLfit) and the Ki is calculated using the Cheng-Prussoff equation.

T1 sequence (P37288 whole entry): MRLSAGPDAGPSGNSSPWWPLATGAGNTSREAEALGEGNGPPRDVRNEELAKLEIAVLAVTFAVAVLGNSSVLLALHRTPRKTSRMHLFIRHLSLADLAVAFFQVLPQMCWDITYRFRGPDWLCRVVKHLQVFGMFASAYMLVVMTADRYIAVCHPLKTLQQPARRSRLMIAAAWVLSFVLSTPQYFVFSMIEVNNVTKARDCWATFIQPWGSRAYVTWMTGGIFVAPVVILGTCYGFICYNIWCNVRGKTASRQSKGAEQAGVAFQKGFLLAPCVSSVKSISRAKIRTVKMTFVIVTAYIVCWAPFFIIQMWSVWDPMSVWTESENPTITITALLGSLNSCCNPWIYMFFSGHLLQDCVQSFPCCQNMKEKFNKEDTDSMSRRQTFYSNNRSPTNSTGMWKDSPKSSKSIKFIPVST

Question: Which Ki does the source give for `CC(C)(C)OC(=O)N1Cc2cc(Cl)ccc2-n2c(nnc2[C@H]2CC[C@@]3(CC2)OCc2ccccc23)C1` [Example 1, tert-Butyl 8-chloro-1-[(1r,4′r)-3H-spiro[2-benzofuran-1,1′-cyclohexan]-4′-yl]-4H-[1,2,4]triazolo[4,3-a][1,4]benzodiazepine-5(6H)-carboxylate] here?
Answer: 4.57 nM

Question: For `Clc1ccc2c(c1)CNCc1nnc([C@H]3CC[C@@]4(CC3)OCc3ccccc34)n1-2` [Example 2, 8-Chloro-1-[(1r,4′r)-3H-spiro[2-benzofuran-1,1′-cyclohexan]-4′-yl]-5,6-dihydro-4H-[1,2,4]triazolo[4,3-a][1,4]benzodiazepine hydrochloride], which Ki is on record?
Answer: 39.8 nM

Question: With `CN1Cc2cc(Cl)ccc2-n2c(nnc2[C@H]2CC[C@@]3(CC2)OCc2ccccc23)C1` [Example 3, 8-Chloro-5-methyl-1-[(1r,4′r)-3H-spiro[2-benzofuran-1,1′-cyclohexan]-4′-yl]-5,6-dihydro-4H-[1,2,4]triazolo[4,3-a][1,4]benzodiazepine] as the molecule, how does the Ki read?
Answer: 2.82 nM

Question: `Clc1ccc2c(c1)CNCc1nnc([C@H]3CC[C@]4(CC3)OCc3ccccc34)n1-2` [Example 5, 8-Chloro-1-[(1s,4′s)-3H-spiro[2-benzofuran-1,1′-cyclohexan]-4′-yl]-5,6-dihydro-4H-[1,2,4]triazolo[4,3-a][1,4]benzodiazepine hydrochloride] was tested. Which Ki did it give?
Answer: 16.2 nM

Question: How did the Ki turn out when `CN1Cc2cc(Cl)ccc2-n2c(nnc2N2CCC3(CC2)OCc2ccccc23)C1` [Example 9, 8-Chloro-5-methyl-1-(1′H,3H-spiro[2-benzofuran-1,4′-piperidin]-1′-yl)-5,6-dihydro-4H-[1,2,4]triazolo[4,3-a][1,4]benzodiazepine] was run?
Answer: 2.4 nM

Question: `Clc1ccc2c(c1)CN(Cc1ccccn1)Cc1nnc(N3CCC4(CC3)OCc3ccccc34)n1-2` [Example 12, 8-Chloro-5-(pyridin-2-ylmethyl)-1-(1′H,3H-spiro[2-benzofuran-1,4′-piperidin]-1′-yl)-5,6-dihydro-4H-[1,2,4]triazolo[4,3-a][1,4]benzodiazepine] was tested. Which Ki did it give?
Answer: 1.82 nM

Question: How did the Ki turn out when `CN1Cc2cc(Cl)ccc2-n2c(nnc2N2CCC3(CC2)OC(=O)c2ccccc23)C1` [Example 27, 1′-(8-Chloro-5-methyl-5,6-dihydro-4H-[1,2,4]triazolo[4,3-a][1,4]benzodiazepin-1-yl)-3H-spiro[2-benzofuran-1,4′-piperidin]-3-one] was run?
Answer: 12.3 nM

Question: For `CN1Cc2cc(Cl)ccc2-n2c(nnc2N2CCC3(CC2)SCc2ccccc23)C1` [Example 29], which Ki is on record?
Answer: 1.74 nM

Question: With `CN1Cc2cc(Cl)ccc2-n2c(nnc2N2CCC3(CC2)c2ccccc2CS3(=O)=O)C1` [Example 31, 8-Chloro-1-(2,2-dioxido-1′H,3H-spiro[2-benzothiophene-1,4′-piperidin]-1′-yl)-5-methyl-5,6-dihydro-4H-[1,2,4]triazolo[4,3-a][1,4]benzodiazepine] as the molecule, how does the Ki read?
Answer: 47.9 nM

Question: For `CN1Cc2cc(Cl)ccc2-n2c(nnc2N2CCC3(CC2)COCc2ccccc23)C1` [Example 32, 1′-(8-Chloro-5-methyl-5,6-dihydro-4H-[1,2,4]triazolo[4,3-a][1,4]benzodiazepin-1-yl)-1H-spiro[isochromene-4,4′-piperidine]], which Ki is on record?
Answer: 2.19 nM

Question: With `CN1Cc2cc(Cl)ccc2-n2c(nnc2N2CCC3(CC2)OCCc2ccccc23)C1` [Example 35, 1′-(8-Chloro-5-methyl-5,6-dihydro-4H-[1,2,4]triazolo[4,3-a][1,4]benzodiazepin-1-yl)-3,4-dihydrospiro[isochromene-1,4′-piperidine]] as the molecule, how does the Ki read?
Answer: 10.5 nM

Same assay, conditions: 3H-Vasopressin displacement, HEK293 cell membranes, Ki calculated from IC50 by Cheng-Prussoff equation; read-out: pKi hV1a (converted)

Question: `CC1OC2(CCN(c3nnc4n3-c3ccc(Cl)cc3CN(C(=O)OC(C)(C)C)C4)CC2)c2ccccc21` (racemic) [Example 24, (RS)-tert-Butyl 8-chloro-1-(3-methyl-1′H,3H-spiro[2-benzofuran-1,4′-piperidin]-1′-yl)-4H-[1,2,4]triazolo[4,3-a][1,4]benzodiazepine-5(6H)-carboxylate] was tested. Which Ki did it give?
Answer: 10.7 nM

Question: `CC1OC2(CCN(c3nnc4n3-c3ccc(Cl)cc3CN(C)C4)CC2)c2ccccc21` (racemic) [Example 26, (RS)-8-Chloro-5-methyl-1-(3-methyl-1′H,3H-spiro[2-benzofuran-1,4′-piperidin]-1′-yl)-5,6-dihydro-4H-[1,2,4]triazolo[4,3-a][1,4]benzodiazepine] was tested. Which Ki did it give?
Answer: 4.79 nM

Question: `CC(C)(C)OC(=O)N1Cc2cc(Cl)ccc2-n2c(nnc2N2CCC3(CC2)OCc2ccccc23)C1` [Example 7, tert-Butyl 8-chloro-1-(1′H,3H-spiro[2-benzofuran-1,4′-piperidin]-1′-yl)-4H-[1,2,4]triazolo[4,3-a][1,4]benzodiazepine-5(6H)-carboxylate] was tested. Which Ki did it give?
Answer: 4.47 nM

Question: For `CC(C)N1Cc2cc(Cl)ccc2-n2c(nnc2N2CCC3(CC2)OCc2ccccc23)C1` [Example 10, 8-Chloro-5-isopropyl-1-(1′H,3H-spiro[2-benzofuran-1,4′-piperidin]-1′-yl)-5,6-dihydro-4H-[1,2,4]triazolo[4,3-a][1,4]benzodiazepine], which Ki is on record?
Answer: 1.82 nM

Question: For `CC(=O)N1Cc2cc(Cl)ccc2-n2c(nnc2N2CCC3(CC2)OCc2ccccc23)C1` [Example 15], which Ki is on record?
Answer: 4.17 nM

Question: For `CN(C)CC(=O)N1Cc2cc(Cl)ccc2-n2c(nnc2N2CCC3(CC2)OCc2ccccc23)C1` [Example 16, 2-[8-Chloro-1-(1′H,3H-spiro[2-benzofuran-1,4′-piperidin]-1′-yl)-4H-[1,2,4]triazolo[4,3-a][1,4]benzodiazepin-5(6H)-yl]-N,N-dimethyl-2-oxoethanamine], which Ki is on record?
Answer: 6.76 nM

Question: With `CC(C)(C)OC(=O)N1Cc2cc(Cl)ccc2-n2c(nnc2N2CCC3(CC2)OCc2ccc(F)cc23)C1` [Example 17, tert-Butyl 8-chloro-1-(6-fluoro-1′H,3H-spiro[2-benzofuran-1,4′-piperidin]-1′-yl)-4H-[1,2,4]triazolo[4,3-a][1,4]benzodiazepine-5(6H)-carboxylate] as the molecule, how does the Ki read?
Answer: 10.2 nM

Question: For `CN1Cc2cc(Cl)ccc2-n2c(nnc2N2CCC3(CC2)OCc2ccc(F)cc23)C1` [Example 19, 8-Chloro-1-(6-fluoro-1′H,3H-spiro[2-benzofuran-1,4′-piperidin]-1′-yl)-5-methyl-5,6-dihydro-4H-[1,2,4]triazolo[4,3-a][1,4]benzodiazepine], which Ki is on record?
Answer: 7.59 nM

Question: With `CN1Cc2cc(Cl)ccc2-n2c(nnc2N2CCC3(CC2)OCc2cccc(F)c23)C1` [Example 22, 8-Chloro-1-(7-fluoro-1′H,3H-spiro[2-benzofuran-1,4′-piperidin]-1′-yl)-5-methyl-5,6-dihydro-4H-[1,2,4]triazolo[4,3-a][1,4]benzodiazepine] as the molecule, how does the Ki read?
Answer: 3.98 nM

Question: `CN1Cc2cc(Cl)ccc2-n2c(nnc2N2CCC3(CC2)OCc2cc(F)ccc23)C1` [Example 23, 8-Chloro-1-(5-fluoro-1′H,3H-spiro[2-benzofuran-1,4′-piperidin]-1′-yl)-5-methyl-5,6-dihydro-4H-[1,2,4]triazolo[4,3-a][1,4]benzodiazepine] was tested. Which Ki did it give?
Answer: 2.09 nM

Question: Which Ki does the source give for `CN1Cc2cc(Cl)ccc2-n2c(nnc2N2CCC[C@@]3(CC2)OCc2ccccc23)C1` [Example 36, (+)-1-(8-Chloro-5-methyl-5,6-dihydro-4H-[1,2,4]triazolo[4,3-a][1,4]benzodiazepin-1-yl)-3′H-spiro[azepane-4,1′-[2]benzofuran]] here?
Answer: 1.45 nM

Question: For `CN1Cc2cc(Cl)ccc2-n2c(nnc2N2CCC[C@]3(CC2)OCc2ccccc23)C1` [Example 37, (−)-1-(8-Chloro-5-methyl-5,6-dihydro-4H-[1,2,4]triazolo[4,3-a][1,4]benzodiazepin-1-yl)-3′H-spiro[azepane-4,1′-[2]benzofuran]], which Ki is on record?
Answer: 5.01 nM
